In patent publication US20230263808A1 (UNIVERSITY OF FLORIDA RESEARCH FOUNDATION, INCORPORATED, priority 2020, published 2023):
Entries after “also recorded” stand apart in the source; their conditions may differ.

Experiments:
C2C12 myotubes = test: Insulin-induced protein synthesis (SUnSET, In-Cell Western) in C2C12 myotubes; type: cell-based, mouse; conditions: for effect on insulin-induced protein synthesis: differentiated myotubes, nutrient-deprived, insulin challenge
Experimental: (§1) A) C2C12 myotubes were assayed for chymotrypsin-like proteasomal activity. […] C) Quantitation of the ICW in panel B. D) ICW for surface expression of Glut4 on L6 myotubes. E) ICW for insulin-induced incorporation of puromycin into C2C12 myotube surface proteins. F-G) High-content imaging and analysis of C2C12 myoblasts stained with a Mitotracker dye. H) Assay reproducibility from screening 22 compounds on two separate occasions. The Pearson correlation coefficient, r, and its associated p-value is indicated.
C2C12 myocytes were used in all assays, except in the Glut4 translocation assay where L6 rat myocytes were used. ICW, In-Cell Western. Also see Methods.
To avoid such effects on myogenesis, we switched myoblasts to differentiation media, and then on day 4, added 10 μM cytarabine, a chemotherapy agent that kills dividing cells, and then adding GCs on day 6 or 7 and completing assays in day 8 (FIG. 8).
(§2) Physiologically, the effects of GCs on protein balance and Glut4 translocation vary in vivo depending upon the stressor. For example, GCs mediate atrophy in response to fasting but not exercise. […] To assess protein degradation, we measured chymotrypsin-like proteasomal activity (FIG. 2, A). The activating phosphorylation of AKT at Thr308 (pAKT) was measured using a LI-COR In-Cell Western assay (FIG. 2, B and C). The rate-limiting step in insulin-mediated glucose uptake is the translocation of the glucose transporter, Glut4, to the surface membrane, which we also measured by In-Cell Western without permeabilizing the myotubes (FIG. 2, D). Surface Sensing of Translation (SUnSET) (Schmidt et al., Nat Methods 6, 275-277, 2009) assay was used to measure protein synthesis by In-Cell Western, following treatment of myotubes with a low dose of puromycin, which incorporates into translating proteins, but at a low enough level to provide a readout for global protein synthesis (FIG. 2, E). Lastly, we developed a high-content imaging assay in myoblasts stained with a MitoTracker dye, so that individual mitochondrial networks could be visualized with adequate resolution to quantitate area, segmentation, branching, and fluorescence intensity which is a measure of mitochondrial membrane potential (ψm).

C2C12 myoblasts = test: Mitochondrial potential, high-content imaging with MitoTracker dye; type: cell-based, mouse
Experimental: as §1
A) Each dot represents the effects of a compound in the indicated assays at 10 uM. N=4-6 from two different experiments. […] C) SR11466 is efficacious at inhibiting IL-6 secretion from A549 cells. C-E). […] D) Mitochondrial activity was measured in myoblasts using high content imaging with mitotracker dye after 24 treatment. New amino acid incorporation was measured with LICOR in cell western for puromycin (SunSet assay). E) top, MMTV-luciferase reporter data. N=3, mean+SEM. Bottom, Mineralization of primary human OBs was assayed after two weeks of differentiation from MSC and two weeks of mineralization. N=4, mean+SEM, 2-way ANOVA.
as §2

LPS-induced TNFα = test: LPS-induced plasma TNFα levels in mice; type: in vivo, C57BL/6 male mice; conditions: mice pretreated with ligand
Source text: A) Correlation of correlation (COC) plots where each point represents the Pearson correlation coefficient, r, between a distinct gene expression or GR-peptide interaction assay with assays indicated on the x and y axes. B) The effects of all tested compounds on IL-1β-induced secretion of IL-6 (y axes) and GC-regulated phenotypes indicated on the x axes. C) The effects of all tested compounds on IL-1β-induced secretion of IL-6 (y axis) and bone mineralization (x axis). D) IL-1β-induced IL-6 production by A549 cells treated with 10 μM of the indicated compounds was compared by AlphaLISA. E-H) Myoblasts were assayed as described in FIG. 8. I) Representative myoblasts imaged during the mitochondrial potential assay. J) Plasma TNFα levels of C57BL/6 male mice treated pretreated with the indicated ligands. K) Changes in lean mass of mice in panel J were determined by whole-body NMR after an additional 18 h LPS treatment. Data shown are mean+SEM.

[1] = Pharmacokinetics for in vivo dosing
GILZ mRNA = test: GILZ gene expression; type: cell-based

Row | pharmacokinetics for in vivo dosing [1] | SMILES | effect on insulin-induced protein synthesis (C2C12 myotubes) | effect on mitochondrial activity / potential (C2C12 myoblasts) | LPS-induced TNFα levels in the blood (LPS-induced TNFα) | GILZ gene expression (GILZ mRNA) | anabolic effect on protein synthesis in combination with Dex (C2C12 myotubes; C2C12 myotubes, with Dex)
1 | favorable pharmacokinetics | C=CCOC1CC2(C)C(CCC2(O)C#CC)C2CCc3cc(C(=O)Nc4cccnc4C)ccc3C12 (centres unmarked) [SR11466] | slightly anabolic | enhanced | strongly suppressed |  | 
2 | favorable pharmacokinetics | CC#CC1(O)CCC2C3CCc4cc(C(=O)Nc5cccnc5C)ccc4C3C(OCc3ccccc3Cl)CC21C (centres unmarked) [SR16024] | doubling; also recorded: robustly stimulated protein synthesis | enhanced; also recorded: doubling; also recorded: anabolic profile in mitochondria | not inhibitory | not activating GILZ | right-shift in the dose curve; also recorded: Dex inhibits
3 |  | CC#CC1(O)CCC2C3CCc4cc(C(=O)Nc5cccnc5C)ccc4C3C(OCc3ccc(Cl)cc3)CC21C (centres unmarked) [SR16025] |  |  |  | not activating GILZ | 
